# Measurements reported in patent publication US4952585A, “Castanospermine esters in the inhibition of tumor metastasis” (Merrell Dow Pharmaceuticals Inc., priority 1988, dated 1990).
# Tests used:
# B16 F10 melanoma cells = experiment: inhibition of pulmonary metastases in C57 mice after pretreatment of B16 F10 melanoma cells with test compound in culture; format: in vivo, C57 male mice; conditions: Mus musculus, B16-F10, 360 h, pulmonary foci counted fifteen days after i.v. inoculation, read-out: per cent inhibition of metastases; for inhibition in vivo at 1 µg/mL: cells pretreated 48 hours with 1 μg/ml; for inhibition in vivo at 10 µg/mL: cells pretreated 48 hours with 10 μg/ml
# Protocol: The lungs provide a convenient organ for the study of metastasis in the animal body.
# A single suspension of B16 F10 melanoma cells was prepared from a 14 day old maintenance tumor excised from a C57 male mouse. The tumor was minced and trypsinized followed by dissociation of the cells in minimal essential medium (MEM) with fetal calf serum (FCS) by repeated pipetting. The preparation was passed through a sterile gauze pad, centrifuged, and the cell pellet washed in minimal essential medium without fetal calf serum. A trypan blue wet mount was made to determine the percent of viable cells.
# The cells were then plated in 100 mm petri dishes at 0.5×10^6 viable cells/10 ml minimal essential medium with fetal calf serum and incubated at 37° C. for 24 to 48 hours. After incubation, the medium was aspirated and 10 ml of the test compounds at the concentrations of 1 μg or 10 μg/ml MEM with FCS was added. After 24 hours incubation, the medium was aspirated and 10 ml of fresh test compound-medium preparation was added.
# Test compounds were dissolved in water or dimethyl sulfoxide and then diluted to the testing concentrations with medium. Control plates receive only medium and/or medium containing dimethyl sulfoxide.
# After a total of 48 hours incubation, the testing medium was aspirated, the cells trypsinized and suspended in MEM with FCS. The cells were washed in MEM without FCS and resuspended at the concentration of 10×10^5 cells/ml of MEM without FCS.
# C57 male mice weighing 20-25 grams (Charles River) were inoculated intravenously via the tail vein with 2×10^5 cells per 0.2 ml MEM without FCS/mouse. Fifteen days after inoculation, the animals were sacrificed by carbon dioxide inhalation and the lungs were removed and placed in formalin solution. The number of pulmonary foci per animal lung was counted (after separating the lobes) under a lighted dissecting lens.
# Data can be expressed as the mean number of foci±S.E. per control and treatment groups. Treatment group data is also expressed as a percent of control and percent of inhibition (100% minus % of control). When the procedure described above was carried out on the castanospermine esters listed below, the per cent inhibition of metastases observed [at the dose, in micrograms per milliliter (μg/ml), given in parentheses] was as follows: […]
# [1] = tested on: B16 melanoma F10 line cells; experiment: inhibition of metastatic foci in the lungs of C57/BL mice injected i.v. with B16 melanoma F10 line cells, test compound given i.p.; format: in vivo; conditions: 100 mg/kg, i.p. daily from day 1-15; metastatic foci in the lungs vs. controls
# Protocol: In another experiment, 1×10^5 viable B16 melanoma F10 line cells were injected i.v. through the tail vein of C57/BL mice. Test compound was then administered at 100 mg/kg, i.p. daily from day 1-15. At the end of 15 days, the animals were sacrificed and the number of metastatic foci in the lungs were quantitated and compared to controls run simultaneously.
# experimental metastasis = conditions: mice; Cancer Research, 46, 5215 (1986); cited from earlier work
Structure (SMILES),inhibition in vivo at 1 µg/mL (B16 F10 melanoma cells) [%],other results
"O=C(O[C@H]1CN2CC[C@H](O)[C@@H]2[C@@H](O)[C@@H]1O)c1ccco1 [[1S-(1α,6β,7α,8β,8aβ)]-Octahydro-1,6,7,8-indolizinetetrol 6-(2-furancarboxylate)]",51,% INHIBITION of metastasis [1]: 40%
"Cc1ccccc1C(=O)O[C@H]1CN2CC[C@H](O)[C@@H]2[C@@H](O)[C@@H]1O [[1S-(1α,6β,7α,8β,8aβ)]-Octahydro-1,6,7,8-indolizinetetrol 6-(2-methylbenzoate)]",–,inhibition in vivo at 10 µg/mL (B16 F10 melanoma cells): 71%
"Cc1cccc(C(=O)O[C@H]2CN3CC[C@H](O)[C@@H]3[C@@H](O)[C@@H]2O)c1 [[1S-(1α,6β,7α,8β,8aβ)]-Octahydro-1,6,7,8-indolizinetetrol 6-(3-methylbenzoate)]",78,–
"COc1ccc(C(=O)O[C@H]2CN3CC[C@H](O)[C@@H]3[C@@H](O)[C@@H]2O)cc1 [[1S-(1α,6β,7α,8β,8aβ)]-octahydro-1,6,7,8-indolizinetetrol 6-(4-methoxybenzoate)]",19,–
"Cc1ccc(C(=O)O[C@H]2CN3CC[C@H](O)[C@@H]3[C@@H](O)[C@@H]2O)cc1 [[1S-(1α,6β,7α,8β,8aβ)]-octahydro-1,6,7,8-indolizinetetrol 6-(4-methylbenzoate)]",–,inhibition in vivo at 10 µg/mL (B16 F10 melanoma cells): 75%; % INHIBITION of metastasis [1]: 71%
"CC(=O)O[C@H]1CN2CC[C@H](O)[C@@H]2[C@@H](O)[C@@H]1O [[1S-(1α,6β,7α,8β,8aβ)]-octahydro-1,6,7,8-indolizinetetrol 6-acetate]",> 50,–
"O=C(O[C@H]1CN2CC[C@H](O)[C@@H]2[C@@H](O)[C@@H]1O)c1ccccc1 [[1S-(1α,6β,7α,8β,8aβ)]-octahydro-1,6,7,8-indolizinetetrol 6-benzoate]",35,% INHIBITION of metastasis [1]: 66%
"CCCC(=O)O[C@H]1CN2CC[C@H](O)[C@@H]2[C@@H](O)[C@@H]1O [[1S-(1α,6β,7α,8β,8aβ)]-octahydro-1,6,7,8-indolizinetetrol 6-butanoate]",–,inhibition in vivo at 10 µg/mL (B16 F10 melanoma cells): 13%
"Cc1ccc(C(=O)O[C@H]2[C@H](O)[C@H]3[C@@H](O)CCN3C[C@@H]2O)cc1 [[1S-(1α,6β,7α,8β,8aβ)]-octahydro-1,6,7,8-indolizinetetrol 7-(4-methylbenzoate)]",65,–
"O=C(O[C@H]1[C@H](O)[C@H]2[C@@H](O)CCN2C[C@@H]1O)c1ccccc1 [[1S-(1α,6β,7α,8β,8aβ)]-octahydro-1,6,7,8-indolizinetetrol 7-benzoate]",23,–
"CCC(=O)O[C@H]1[C@H](O)[C@H]2[C@@H](O)CCN2C[C@@H]1O [[1S-(1α,6β,7α,8β,8aβ)]-octahydro-1,6,7,8-indolizinetetrol 7-propionate]",36,–
"O[C@H]1[C@H](O)[C@@H](O)CN2CC[C@H](O)[C@H]12 [castanospermine, (1S,6S,7R,8R,8aR)-1,6,7,8-tetrahydroxyindolizidine]",–,inhibition of experimental metastasis (experimental metastasis): inhibition of experimental metastasis
